Results published in the supplement of paper PMC11061612.

Tests used:
Assay in all cases: combination Emax (second highest fraction inhibited in the dose matrix, 72 h); higher = more inhibition; extreme values may be limits of the assay
[1] = tested on: 23132-87 (Gastric Carcinoma)
In short: (§1)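 Bliss excess equals the observed combination effect minus the expected value EA + EB − EA·EB, where EA and EB are the effects of each agent alone. Combination Emax is the second-highest inhibition within the matrix. Inhibition was scaled from CellTiter-Glo 2.0 luminescence, with 0 set by vehicle wells and 1 by blank wells, after 72 hours of two-drug dosing of cells plated in 1536-well plates.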

[2] = tested on: FADU (Head and Neck Carcinoma)
In short: as §1

GB-1 (Glioblastoma) = tested on: GB-1 (Glioblastoma)
In short: as §1

[3] = tested on: HCT-15 (Colorectal Carcinoma)
In short: as §1

[4] = tested on: HEC-1 (Endometrial Carcinoma)
In short: as §1

IST-MES1 (Mesothelioma) = tested on: IST-MES1 (Mesothelioma)
In short: as §1

[5] = tested on: L-1236 (Hodgkin's Lymphoma)
In short: as §1

[6] = tested on: LK-2 (Squamous Cell Lung Carcinoma)
In short: as §1

LN-229 (Glioblastoma) = tested on: LN-229 (Glioblastoma)
In short: as §1

[7] = tested on: LXF-289 (Lung Adenocarcinoma)
In short: as §1

[8] = tested on: NCI-H23 (Lung Adenocarcinoma)
In short: as §1

[9] = tested on: OPM-2 (Plasma Cell Myeloma)
In short: as §1

[10] = tested on: RKN (Other Solid Carcinomas)
In short: as §1

SF539 (Glioblastoma) = tested on: SF539 (Glioblastoma)
In short: as §1

[11] = tested on: SHP-77 (Small Cell Lung Carcinoma)
In short: as §1

[12] = tested on: SK-PN-DW (Other Solid Carcinomas)
In short: as §1

[13] = tested on: SU-DHL-10 (B-Cell Non-Hodgkin's Lymphoma)
In short: as §1

[14] = tested on: TE-8 (Esophageal Squamous Cell Carcinoma)
In short: as §1

WM278 (Melanoma) = tested on: WM278 (Melanoma)
In short: as §1

| SMILES | combination Emax [1] | combination Emax [2] | combination Emax (GB-1 (Glioblastoma)) | combination Emax [3] | combination Emax [4] | combination Emax (IST-MES1 (Mesothelioma)) | combination Emax [5] | combination Emax [6] | combination Emax (LN-229 (Glioblastoma)) | combination Emax [7] | combination Emax [8] | combination Emax [9] | combination Emax [10] | combination Emax (SF539 (Glioblastoma)) | combination Emax [11] | combination Emax [12] | combination Emax [13] | combination Emax [14] | combination Emax (WM278 (Melanoma)) |
| --- | --- | --- | --- | --- | --- | --- | --- | --- | --- | --- | --- | --- | --- | --- | --- | --- | --- | --- | --- |
| CN(C)CCCOc1ccc(-c2ccc3ncc4c(c3c2)n(C2CCOCC2)c(=O)n4C)cn1 [AZD0156] + C[C@@H]1COCCN1C2=NC(=NC(=C2)C3(CC3)[S@](=N)(=O)C)C4=C5C=CNC5=NC=C4 [AZD6738] (first compound max 1 µM, 7x7, partner max 10 µM) | 0.873 | 0.758 | 0.392 | 0.915 | 0.363 | 0.176 | 0.634 | 0.501 | 0.54 | 0.573 | 0.786 | 0.776 | 0.206 | 0.929 | 0.665 | 0.928 | 0.979 | 0.817 | 0.341 |
| CCN(CCO)CCCOc1ccc2c(Nc3cc(CC(=O)Nc4cccc(F)c4)[nH]n3)ncnc2c1 [AZD2811] + O=C(c1cc(Cc2n[nH]c(=O)c3ccccc23)ccc1F)N1CCN(C(=O)C2CC2)CC1 [Olaparib] (first compound max 1 µM, 7x7, partner max 10 µM) | 0.246 | 0.299 | 0.194 | 0.12 | 0.0832 | 0.29 | 0.158 | 0.765 | 0.167 | 0.555 | 0.235 | 0.363 | 0.228 | 0.502 | 0.185 | 0.689 | 0.745 | 0.335 | 0.166 |
| Cc1cc2ncnn2cc1Nc1ncc2c(n1)n(C1CCOCC1)c(=O)n2C [AZD7648] + CCN(CCO)CCCOc1ccc2c(Nc3cc(CC(=O)Nc4cccc(F)c4)[nH]n3)ncnc2c1 [AZD2811] (first compound max 10 µM, 7x7, partner max 1 µM) | 0 | 0.263 | 0.166 | 0.455 | 0 | 0.31 | 0.384 | 0.742 | 0.199 | 0.395 | 0.228 | 0.605 | 0.211 | 0.462 | 0.258 | 0.696 | 0.899 | 0.354 | 0.157 |
| Cc1cc2ncnn2cc1Nc1ncc2c(n1)n(C1CCOCC1)c(=O)n2C [AZD7648] + C[C@@H]1COCCN1C2=NC(=NC(=C2)C3(CC3)[S@](=N)(=O)C)C4=C5C=CNC5=NC=C4 [AZD6738] (first compound max 10 µM, 7x7, partner max 10 µM) | 0.841 | 0.695 | 0.544 | 0.835 | 0.423 | 0.313 | 0.689 | 0.39 | 0.525 | 0.369 | 0.603 | 0.822 | 0.225 | 0.85 | 0.493 | 0.943 | 0.878 | 0.75 | 0.33 |
| COc1cccc(OCCCN)c1-c1cc(Nc2cnc(C#N)cn2)n[nH]1 [Prexasertib] + C=CCn1c(=O)c2cnc(Nc3ccc(N4CCN(C)CC4)cc3)nc2n1-c1cccc(C(C)(C)O)n1 [AZD1775] (first compound max 1 µM, partner max 1 µM) | 0.939 | 0.914 | 0.651 | 0.972 | 0.715 | 0.609 | 0.786 | 0.92 | 0.738 | 0.834 | 0.918 | 0.967 | 0.833 | 1 | 0.949 | 0.968 | 1 | 0.966 | 0.605 |
| COc1cccc(OCCCN)c1-c1cc(Nc2cnc(C#N)cn2)n[nH]1 [Prexasertib] + Cc1cc2ncnn2cc1Nc1ncc2c(n1)n(C1CCOCC1)c(=O)n2C [AZD7648] (first compound max 1 µM, 7x7, partner max 10 µM) | 0.939 | 0.851 | 0.458 | 0.935 | 0.53 | 0.355 | 0.776 | 0.755 | 0.725 | 0.724 | 0.889 | 0.912 | 0.658 | 0.985 | 0.862 | 0.931 | 0.999 | 0.937 | 0.596 |
| CCN(CCO)CCCOc1ccc2c(Nc3cc(CC(=O)Nc4cccc(F)c4)[nH]n3)ncnc2c1 [AZD2811] + C[C@@H]1COCCN1C2=NC(=NC(=C2)C3(CC3)[S@](=N)(=O)C)C4=C5C=CNC5=NC=C4 [AZD6738] (first compound max 1 µM, 7x7, partner max 10 µM) | 0.811 | 0.654 | 0.366 | 0.805 | 0.212 | 0.345 | 0.595 | 0.698 | 0.562 | 0.516 | 0.785 | 0.71 | 0.206 | 0.955 | 0.496 | 0.947 | 0.985 | 0.781 | 0.332 |
| CN(C)CCCOc1ccc(-c2ccc3ncc4c(c3c2)n(C2CCOCC2)c(=O)n4C)cn1 [AZD0156] + C=CCn1c(=O)c2cnc(Nc3ccc(N4CCN(C)CC4)cc3)nc2n1-c1cccc(C(C)(C)O)n1 [AZD1775] (first compound max 1 µM, partner max 1 µM) | 0.645 | 0.617 | 0.263 | 0.726 | 0.0682 | 0.207 | 0.755 | 0.898 | 0.314 | 0.264 | 0.815 | 0.805 | 0.263 | 1 | 0.419 | 0.871 | 0.936 | 0.783 | 0.228 |
| COc1cccc(OCCCN)c1-c1cc(Nc2cnc(C#N)cn2)n[nH]1 [Prexasertib] + C[C@@H]1COCCN1C2=NC(=NC(=C2)C3(CC3)[S@](=N)(=O)C)C4=C5C=CNC5=NC=C4 [AZD6738] (first compound max 1 µM, 7x7, partner max 10 µM) | 0.908 | 0.918 | 0.691 | 0.95 | 0.74 | 0.278 | 0.799 | 0.689 | 0.791 | 0.762 | 0.884 | 0.909 | 0.577 | 0.972 | 0.836 | 0.937 | 1 | 0.933 | 0.569 |
| Cc1cc2ncnn2cc1Nc1ncc2c(n1)n(C1CCOCC1)c(=O)n2C [AZD7648] + C=CCn1c(=O)c2cnc(Nc3ccc(N4CCN(C)CC4)cc3)nc2n1-c1cccc(C(C)(C)O)n1 [AZD1775] (first compound max 10 µM, partner max 1 µM) | 0.659 | 0.546 | 0.439 | 0.736 | 0.137 | 0.402 | 0.767 | 0.894 | 0.35 | 0.476 | 0.786 | 0.864 | 0.248 | 0.998 | 0.432 | 0.875 | 0.978 | 0.814 | 0.254 |
| CCN(CCO)CCCOc1ccc2c(Nc3cc(CC(=O)Nc4cccc(F)c4)[nH]n3)ncnc2c1 [AZD2811] + C=CCn1c(=O)c2cnc(Nc3ccc(N4CCN(C)CC4)cc3)nc2n1-c1cccc(C(C)(C)O)n1 [AZD1775] (first compound max 1 µM, partner max 1 µM) | 0.656 | 0.608 | 0.332 | 0.743 | 0.141 | 0.27 | 0.74 | 0.887 | 0.218 | 0.573 | 0.829 | 0.809 | 0.281 | 1 | 0.415 | 0.899 | 1 | 0.781 | 0.171 |
| CCc1c2c(nc3ccc(O)cc13)-c1cc3c(c(=O)n1C2)COC(=O)[C@]3(O)CC [SN-38] + CN(C)CCCOc1ccc(-c2ccc3ncc4c(c3c2)n(C2CCOCC2)c(=O)n4C)cn1 [AZD0156] (first compound max 0.3 µM, 7x7, partner max 1 µM) | 0.845 | 1 | 0.735 | 0.943 | 0.398 | 0.875 | 0.76 | 0.584 | 0.283 | 0.599 | 0.554 | 0.772 | 0.631 | 0.895 | 0.48 | 0.92 | 0.986 | 0.69 | 0.635 |
| CCc1c2c(nc3ccc(O)cc13)-c1cc3c(c(=O)n1C2)COC(=O)[C@]3(O)CC [SN-38] + O=C(c1cc(Cc2n[nH]c(=O)c3ccccc23)ccc1F)N1CCN(C(=O)C2CC2)CC1 [Olaparib] (first compound max 0.3 µM, 7x7, partner max 10 µM) | 0.814 | 0.996 | 0.781 | 0.852 | 0.761 | 0.63 | 0.87 | 0.456 | – | – | – | 0.734 | 0.651 | 0.99 | 0.567 | 0.909 | – | 0.575 | 0.627 |
| CN(C)CCCOc1ccc(-c2ccc3ncc4c(c3c2)n(C2CCOCC2)c(=O)n4C)cn1 [AZD0156] + CCN(CCO)CCCOc1ccc2c(Nc3cc(CC(=O)Nc4cccc(F)c4)[nH]n3)ncnc2c1 [AZD2811] (first compound max 1 µM, 7x7, partner max 1 µM) | 0.118 | 0.228 | 0.0845 | 0.317 | 0.0528 | 0.172 | 0.215 | 0.834 | 0.123 | 0.507 | 0.151 | 0.436 | 0.132 | 0.394 | 0.237 | 0.605 | 0.835 | 0.196 | 0.0859 |
